Laboratory results published in article PMC4314633, “Homo-β-amino acid containing MBP(85–99) analogs alleviate experimental autoimmune encephalomyelitis” (Scientific Reports, 2015).
Each block holds one compound with its values, some of them ahead of it. Where a SMILES comes first, the peptide text is derived from it. [ ]: non-standard residue; d: D form. ξ: configuration not given here. ξβ3hE = NC(CCC(=O)O)CC(=O)O; ξβ3hK = NCCCCC(N)CC(=O)O; ξβ3hA = CC(N)CC(=O)O

How the values were obtained:
RRMS = details: cited from earlier work
Excerpt: However, therapeutic potencies of such antigen-specific modalities has always been moderate due to their peptidic nature e.g. in the case of GA it is only 20–30 percent. Expectedly, it is their minimal stability in proteolytic milieu and thus inefficient presentation on antigen presenting cells (APCs) which perhaps gets translated into their reduced efficacy.

[1] = test system: experimental autoimmune encephalomyelitis in SJL/J mice; experiment: EAE prevention (pre-treatment) setup in SJL/J mice; type: in vivo, mouse; details: prevention: 400 μg in IFA a week prior to immunization with MBP(85–99)
Description: EAE was induced and assessed as described previously. SJL/J (female; 6–8 week old) were injected subcutaneously with 100 μg of MBP(85–99) (two immunizations spaced a week apart) emulsified in complete Freund's adjuvant (CFA). Immunized mice were also given an intra-peritoneal injection of pertussis toxin (200 ng) on day 0 and 2. Severity of clinical disability was scored on a scale of 0 to 5, where, 0, no detectable signs of EAE; 1, complete tail paralysis; 2, wobbly gait; 3, complete hind limb paralysis; 4, complete hind and fore limb paralysis or moribund; 5, dead.

[2] = test system: experimental autoimmune encephalomyelitis in SJL/J mice; experiment: EAE treatment setup in SJL/J mice; type: in vivo, mouse; details: treatment: 100 μg subcutaneously daily for a week
Description: Animals were perfused intra-cardially with ice cold PBS and 4% paraformaldehyde (PFA) sequentially under deep anesthesia. Thereafter intact spinal cord tissue was dissected out, equilibrated with 30% sucrose and embedded in tissue freezing media (Polyfreez, Polysciences). Subsequently, transverse sections (15 μM thick) were cut through lumbar region in a cryotome (Thermo) and collected in storage buffer (30% glycerol and ethylene glycol in PBS). Sections were retrieved from storage buffer, transferred into citrate buffer (10 mM, pH 6.0) and incubated at 65°C for 30 minutes for antigen retrieval. After 30 minute incubation period, sections were equilibrated with PBS and blocked using 3% bovine serum albumin and 1% normal serum for 2 hours at room temperature. […]

α-chymotrypsin = α-chymotrypsin (Bos taurus, UniProt P00766); experiment: Proteolysis assay with chymotrypsin, RP-HPLC; type: in vitro ADME; details: chymotrypsin 0.1 μg/ml, peptide 1 mg/ml, PBS with 0.01% sodium azide, 37°C
Description: Aliquots were drawn at various time points and analyzed by high pressure liquid chromatography (HPLC, Shimadzu). Degradation mixtures were resolved on a C18 column (Phenomenix) using acetonitrile/water with 0.1% trifluroacetic acid (TFA) as a solvent system at a flow rate of 0.4 ml/minute. Analogs un-cleaved in the reaction mixture were quantified in terms of percent peak area. […] Aliquots were drawn and analyzed on a polyacrylamide gel (15%).

Compound: glatiramer acetate [GA]
therapeutic potency (RRMS): 20–30%
reduction of disease severity (cumulative disability score) [1]: 40–50%
duration of therapeutic effect post-treatment [2]: ~ 1.7 weeks
reduction of disease severity (cumulative disability score) [2]: 30–35%

time up to which detectable in the reaction mixture (α-chymotrypsin; RP-HPLC): ≤ 2 days
percent remaining intact in reaction mixture (α-chymotrypsin; after 12 hours, RP-HPLC percent peak area, n ≥ 3): > 90%
Compound: CC(CC(=O)O)NC(=O)CC(C)NC(=O)CC(C)NC(=O)CC(C)NC(=O)CC(CCCCN)NC(=O)[C@H](Cc1ccc(O)cc1)NC(=O)[C@H](C)NC(=O)[C@H](CCC(=O)O)NC(=O)[C@@H](NC(=O)[C@H](CCCCN)NC(=O)[C@@H]1CCCN1C(=O)CC(CCCCN)NC(=O)CC(N)CCC(=O)O)C(C)C (stereo partly drawn) [S18] (H-[ξβ3hE][ξβ3hK]PKVEAY[ξβ3hK][ξβ3hA][ξβ3hA][ξβ3hA][ξβ3hA]-OH)

percent hydrolyzed (α-chymotrypsin; in 6 hours, RP-HPLC percent peak area): > 50%
Compound: CC(C)[C@H](NC(=O)[C@H](CCCCN)NC(=O)[C@@H]1CCCN1C(=O)[C@H](CCCCN)NC(=O)[C@@H](N)CCC(=O)O)C(=O)N[C@@H](CCC(=O)O)C(=O)N[C@@H](C)C(=O)N[C@@H](Cc1ccc(O)cc1)C(=O)N[C@@H](CCCCN)C(=O)N[C@@H](C)C(=O)N[C@@H](C)C(=O)N[C@@H](C)C(=O)N[C@@H](C)C(=O)N1CCC[C@H]1C(=O)N[C@@H](C)C(=O)O [J5]
